Laboratory results taken from US12403184B2, “Compositions and methods for treating neurodegenerative disroders” (priority 2018, dated 2025).
Where no end group is shown, it is not given here.

What was measured:
[1] = system: HdhQ111 cells; assay: Western blot of mitochondrial biogenesis and electron transport proteins in striatal cells; format: cell-based, mouse
Experimental: Mouse striatal cell lines HdhQ7 and Q111 cells are immortalized from knock-in mice carrying 7 and 111 CAG repeats, respectively, in the mouse htt gene. HdhQ7 and HdhQ111 purchased from CHDI Foundation were cultured in DMEM supplemented with 10% (v/v) heat-inactivated FBS, 1% (v/v) penicillin/streptomycin, and 400 μg/ml G418 at 33° C. with 5% CO2. Cells within 14 passages were used in all experiments.
(§1) Protein concentration was measured by protein assay dye reagents (Bio-rad). The protein was resuspended in Laemmli buffer, loaded on SDS-PAGE, and transferred onto nitrocellulose membranes. Membranes were probed with the indicated antibodies, followed by visualization with ECL. Representative blots have been cropped for presentation.

[2] = system: wildtype mice; assay: Tolerability of DA1 treatment in wildtype mice; format: in vivo, mouse
Experimental: Systemic peptide treatment in HD mice. All randomization and peptide treatments were prepared by an experimenter not associated with behavioral and neuropathology analysis. […] […] The pump was replaced once every month.
The body weight and survival rate of HD mice and wild-type littermates were recorded throughout the study period.

[3] = system: mitochondrial fusion and fission-related proteins; assay: Total protein levels of mitochondrial dynamics proteins by western blot; format: cell-based
Experimental: as §1

[4] = system: activated microglial cells; assay: Iba1 immunofluorescence of microglial activity in HD mouse striatum; format: in vivo
Experimental: For Iba1 immunofluorescence staining, mice were deeply anesthetized and transcardially perfused with 4% paraformaldehyde in PBS. Frozen brain sections (10 μm, coronal) were permeabilized with 0.1% Triton X-100 in TBS-T buffer followed by blocking with 5% normal goat serum. The brain sections were then incubated with anti-Iba1 antibody (1:500 dilution) for overnight at 4° C., followed by staining with Alex-488 anti-rabbit secondary antibody (1:2000 dilution). Iba1-immunopositive cells in the […] were quantitated by image J software.

[5] = system: neurons derived from HD patients; assay: mitoROS (mitoSOX probe) in neurons derived from iPS cells; format: cell-based, human
Experimental: iPS cells from a normal subject and a HD patient (carrying 41 CAG repeats) were differentiated into neurons using the protocol from our previous studies. Briefly, the iPS cells were plated onto 6-well plates precoated with 2.5% Matrigel and allowed to reach 90% confluence in feeder-free medium. For the first 10 days, the cells were treated with SB431542 (10 μM; Tocris Bioscience) and Noggin (100 ng/ml) in Neural Media (NM) containing Neurobasal and DMEM (1:1), B-27 supplement minus vitamin A (50×, Invitrogen), N2 supplement (100×, Invitrogen), GlutaMax (Invitrogen, 100×), FGF2 ([…]) and EGF ([…]), and 100 units/ml penicillin and 100 μg/ml streptomycin). For the next 10 days, the cells were treated with human recombinant Sonic hedgehog (SHH, 200 ng/ml), DKK1 (100 ng/ml) and BDNF (20 ng/ml), and 10 μM Y27632 (Sigma) in neuronal differentiation medium containing Neurobasal and DMEM (1:3), B27, N2, GlutaMax, and PS. Cells were then switched to treatment with BDNF (20 ng/ml), ascorbic acid (200 μM, Sigma-Aldrich), cAMP (0.5 mM, Sigma-Aldrich), and Y27632 (10 μM) in neuronal differentiation medium. All growth factors were purchased from PeproTech (Rocky Hill, NJ, USA). […]
To examine mitochondrial superoxide production, the cells were stained with MitoSOX (Invitrogen, 5 μM for 10 min) at 37° C. […] At least 150 cells/group were counted and quantitated.

[6] = molecular target: T1, Drp1/ATAD3A (Mus musculus, UniProt Q925I1); assay: Immunoprecipitation of Drp1/ATAD3A binding in striatal extracts of treated HD R6/2 mice; format: in vivo; conditions: striatal extracts of HD R6/2 mice, 1 mg/kg/day from 6 to 12 weeks
T1 construct: The total lysates of cells or mouse striatum were subject to IP analysis; endogenous in cells; host or cells: HdhQ7 / HdhQ111 mouse striatal cells; wild-type mouse striatal cells exposed to 3-NP
T1 sequence (Q925I1 2-591 limits assumed): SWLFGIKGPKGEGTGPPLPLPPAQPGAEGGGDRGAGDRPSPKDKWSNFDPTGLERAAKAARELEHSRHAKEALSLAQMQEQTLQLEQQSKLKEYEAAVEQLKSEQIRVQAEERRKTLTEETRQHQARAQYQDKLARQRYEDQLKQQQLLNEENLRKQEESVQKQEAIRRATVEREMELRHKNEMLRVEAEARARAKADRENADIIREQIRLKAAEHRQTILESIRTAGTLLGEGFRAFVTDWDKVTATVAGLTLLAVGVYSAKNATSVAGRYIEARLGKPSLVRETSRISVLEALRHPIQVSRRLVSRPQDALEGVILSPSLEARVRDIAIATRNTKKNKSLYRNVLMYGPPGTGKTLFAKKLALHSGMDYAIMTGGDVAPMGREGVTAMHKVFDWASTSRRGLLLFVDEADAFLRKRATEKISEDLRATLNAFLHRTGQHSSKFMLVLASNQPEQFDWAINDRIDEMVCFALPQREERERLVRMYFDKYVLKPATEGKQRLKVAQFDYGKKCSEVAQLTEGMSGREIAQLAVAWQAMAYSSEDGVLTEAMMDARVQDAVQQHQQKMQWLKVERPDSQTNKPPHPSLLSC
Experimental: Cells and mouse brain tissues were harvested and lysed in total lysis buffer ([…], pH 7.9, […], […], 1% Triton X-100, and protease inhibitor cocktail) for 30 mins on ice and centrifuged at 12,000×g for 10 min at 4° C. The supernatants were incubated with the indicated primary antibodies or control IgG (sc-2025 and sc-2027, Santa Cruz Biotechnology) overnight at 4° C., followed by incubation with protein A/G beads (sc-2003, Santa Cruz Biotechnology) for 2 h at 4° C. The immunoprecipitates were washed with lysis buffer three times for a total of 30 min and then subject to WB analysis.
Systemic peptide treatment in HD mice. All randomization and peptide treatments were prepared by an experimenter not associated with behavioral and neuropathology analysis. Male R6/2 mice (Tg) and their age-matched wild-type littermates (Wt) (6-week-old) were implanted with a 28-day osmotic pump (Alzet, Cupertino CA, Model 2004) containing TAT control peptide or DA1 peptide, which delivered peptides at a rate of 1 mg/kg/day. Male YAC128 mice (Tg) and their age-matched wild-type littermates (WT) were treated with TAT control peptide or DA1 peptide (1 mg/kg/day) by Alzet osmotic pump starting from the age of 3 months. The pump was replaced once every month.

[7] = HdhQ111 cells, 1 μM/day for 4 days
[8] = 1 mg/kg/day for 30 days, Alzet mini pumps, vs saline

In the case of “YGRKKRRQRRRGGEDKRKT-NH2 [DA1, YGRKKRRQRRR-GG-EDKRKT-NH2]”, the “elevation of TFAM level by DA1 treatment” value ([1]; HD mutant cells with ATAD3A knockdown (siRNA)) is reported as “ATAD3A knockdown abolished”, the “nuclear-encoded mitochondrial respiratory chain components” value ([1]; HdhQ111 cells) is reported as “no effect” and the PGC1α level [1, 7] is reported as “restored”. The TFAM level [1, 7] was “restored”, the mtCO2 protein level [1, 7] was “corrected” and the lifespan [2] was “no effect”. For the same substance, the “relative weight (spleen/body weight)” value [2, 8] was “no effects”, the spleen morphology [2, 8] was “no effects” and the “visible side effects in organs” value ([2]; 1 mg/kg/day subcutaneously) was “did not cause”. For the same substance, the weight loss ([2]; 1 mg/kg/day subcutaneously) was “did not cause”, the behavioral status ([2]; sustained treatment) was “minor effects” and the “other mitochondrial fusion and fission-related proteins (total protein levels)” value [3] was “did not affect”. For the same substance, the “inflammatory response (Iba1-marked activated microglial cells)” value ([4]; HD R6/2 mouse striatum, 12 weeks old) was “corrected”, the “inflammatory response (Iba1-marked activated microglial cells)” value ([4]; YAC128 mouse striatum, 6 months old) was “corrected” and the mitoROS [5] was “decreased”. The “binding of Drp1/ATAD3A” value [6] was “significantly reduced”.
